According to the NIST ThermoML archive (doi:10.1021/je050429b):
± gives the expanded uncertainty stated by the source.

Conditions: Gas, Oscillating disk viscometry

CO [methanol]
Conditions	viscosity [mPa·s]
297.41 K, Amount density=10.1 mol/m3	0.009532 ± 0.00049
297.43 K, Amount density=8.17 mol/m3	0.009551 ± 0.00049
297.64 K, Amount density=3.79 mol/m3	0.009594 ± 0.00049
297.92 K, Amount density=38.68 mol/m3	0.009555 ± 0.00049
298.16 K, Amount density=6.32 mol/m3	0.009594 ± 0.00049
298.54 K, Amount density=13.2 mol/m3	0.009579 ± 0.00049
298.71 K, Amount density=49.53 mol/m3	0.009576 ± 0.00049
299.79 K, Amount density=32.22 mol/m3	0.009602 ± 0.00049
299.92 K, Amount density=24.58 mol/m3	0.009618 ± 0.00049
301.53 K, Amount density=17.93 mol/m3	0.009672 ± 0.00049
310.88 K, Amount density=24.58 mol/m3	0.009948 ± 0.0005
311.12 K, Amount density=17.93 mol/m3	0.009959 ± 0.0005
311.23 K, Amount density=8.17 mol/m3	0.01002 ± 0.0005
311.6 K, Amount density=32.22 mol/m3	0.009969 ± 0.0005
311.6 K, Amount density=38.68 mol/m3	0.009971 ± 0.0005
312.25 K, Amount density=6.32 mol/m3	0.01008 ± 0.0005
312.54 K, Amount density=3.79 mol/m3	0.0101 ± 0.0005
313.89 K, Amount density=10.1 mol/m3	0.01008 ± 0.0005
314.18 K, Amount density=13.2 mol/m3	0.01008 ± 0.0005
314.2 K, Amount density=49.53 mol/m3	0.01004 ± 0.0005
324.75 K, Amount density=3.79 mol/m3	0.0105 ± 0.00052
324.77 K, Amount density=49.53 mol/m3	0.01037 ± 0.00051
324.78 K, Amount density=32.22 mol/m3	0.01038 ± 0.00051
325.15 K, Amount density=8.17 mol/m3	0.0105 ± 0.00052
325.22 K, Amount density=10.1 mol/m3	0.0105 ± 0.00052
325.59 K, Amount density=17.93 mol/m3	0.01046 ± 0.00051
325.76 K, Amount density=13.2 mol/m3	0.01049 ± 0.00052
325.91 K, Amount density=6.32 mol/m3	0.01054 ± 0.00052
325.98 K, Amount density=24.58 mol/m3	0.01042 ± 0.00051
326.88 K, Amount density=38.68 mol/m3	0.01044 ± 0.00051
338.47 K, Amount density=8.17 mol/m3	0.01095 ± 0.00053
338.62 K, Amount density=10.1 mol/m3	0.01094 ± 0.00053
338.66 K, Amount density=32.22 mol/m3	0.01083 ± 0.00052
338.69 K, Amount density=3.79 mol/m3	0.01098 ± 0.00053
338.72 K, Amount density=38.68 mol/m3	0.0108 ± 0.00052
338.81 K, Amount density=49.53 mol/m3	0.01077 ± 0.00052
339.25 K, Amount density=17.93 mol/m3	0.01094 ± 0.00053
339.34 K, Amount density=13.2 mol/m3	0.01096 ± 0.00053
339.77 K, Amount density=6.32 mol/m3	0.01101 ± 0.00053
340.14 K, Amount density=24.58 mol/m3	0.01092 ± 0.00053
352.35 K, Amount density=49.53 mol/m3	0.01125 ± 0.00054
352.62 K, Amount density=8.17 mol/m3	0.01143 ± 0.00054
352.86 K, Amount density=10.1 mol/m3	0.01142 ± 0.00054
352.91 K, Amount density=3.79 mol/m3	0.01148 ± 0.00054
352.93 K, Amount density=3.79 mol/m3	0.01144 ± 0.00054
353.05 K, Amount density=8.17 mol/m3	0.01146 ± 0.00054
353.06 K, Amount density=38.68 mol/m3	0.01132 ± 0.00054
353.18 K, Amount density=38.68 mol/m3	0.01134 ± 0.00054
353.2 K, Amount density=49.53 mol/m3	0.01127 ± 0.00054
353.22 K, Amount density=13.2 mol/m3	0.01143 ± 0.00054
353.26 K, Amount density=13.2 mol/m3	0.01143 ± 0.00054
353.3 K, Amount density=6.32 mol/m3	0.01148 ± 0.00054
353.44 K, Amount density=10.1 mol/m3	0.01147 ± 0.00054
353.58 K, Amount density=17.93 mol/m3	0.01143 ± 0.00054
353.71 K, Amount density=24.58 mol/m3	0.01142 ± 0.00054
353.78 K, Amount density=32.22 mol/m3	0.01139 ± 0.00054
355.04 K, Amount density=32.22 mol/m3	0.01143 ± 0.00054
355.05 K, Amount density=24.58 mol/m3	0.01143 ± 0.00054
355.5 K, Amount density=6.32 mol/m3	0.01152 ± 0.00055
355.67 K, Amount density=17.93 mol/m3	0.01148 ± 0.00055
366.59 K, Amount density=10.1 mol/m3	0.01189 ± 0.00056
366.82 K, Amount density=8.17 mol/m3	0.01191 ± 0.00056
366.84 K, Amount density=3.79 mol/m3	0.01191 ± 0.00056
366.93 K, Amount density=17.93 mol/m3	0.01188 ± 0.00056
366.99 K, Amount density=32.22 mol/m3	0.01184 ± 0.00055
367.1 K, Amount density=13.2 mol/m3	0.01189 ± 0.00056
367.81 K, Amount density=49.53 mol/m3	0.01182 ± 0.00055
367.84 K, Amount density=6.32 mol/m3	0.01195 ± 0.00056
367.87 K, Amount density=38.68 mol/m3	0.01184 ± 0.00055
368.03 K, Amount density=24.58 mol/m3	0.0119 ± 0.00056
380.86 K, Amount density=10.1 mol/m3	0.01238 ± 0.00057
380.97 K, Amount density=13.2 mol/m3	0.01236 ± 0.00057
381.27 K, Amount density=3.79 mol/m3	0.0124 ± 0.00057
381.27 K, Amount density=49.53 mol/m3	0.0123 ± 0.00057
381.38 K, Amount density=8.17 mol/m3	0.01241 ± 0.00057
381.53 K, Amount density=17.93 mol/m3	0.01238 ± 0.00057
381.9 K, Amount density=38.68 mol/m3	0.01233 ± 0.00057
381.92 K, Amount density=32.22 mol/m3	0.01237 ± 0.00057
382.15 K, Amount density=6.32 mol/m3	0.01244 ± 0.00057
383.55 K, Amount density=24.58 mol/m3	0.01243 ± 0.00057
394.63 K, Amount density=10.1 mol/m3	0.01285 ± 0.00059
394.76 K, Amount density=8.17 mol/m3	0.01286 ± 0.00059
394.88 K, Amount density=49.53 mol/m3	0.01278 ± 0.00058
395.16 K, Amount density=32.22 mol/m3	0.01282 ± 0.00059
395.18 K, Amount density=24.58 mol/m3	0.01282 ± 0.00059
395.23 K, Amount density=17.93 mol/m3	0.01285 ± 0.00059
395.37 K, Amount density=38.68 mol/m3	0.01281 ± 0.00058
395.39 K, Amount density=3.79 mol/m3	0.01287 ± 0.00059
395.4 K, Amount density=13.2 mol/m3	0.01285 ± 0.00059
396.23 K, Amount density=6.32 mol/m3	0.01291 ± 0.00059
409.39 K, Amount density=13.2 mol/m3	0.01333 ± 0.0006
409.51 K, Amount density=10.1 mol/m3	0.01336 ± 0.0006
409.75 K, Amount density=24.58 mol/m3	0.01333 ± 0.0006
410.18 K, Amount density=32.22 mol/m3	0.01333 ± 0.0006
410.35 K, Amount density=38.68 mol/m3	0.01331 ± 0.0006
411.3 K, Amount density=3.79 mol/m3	0.01343 ± 0.0006
411.31 K, Amount density=6.32 mol/m3	0.01342 ± 0.0006
411.32 K, Amount density=49.53 mol/m3	0.01335 ± 0.0006
412.01 K, Amount density=17.93 mol/m3	0.01338 ± 0.0006
412.33 K, Amount density=8.17 mol/m3	0.01346 ± 0.0006
423.31 K, Amount density=8.17 mol/m3	0.01382 ± 0.00062
423.5 K, Amount density=3.79 mol/m3	0.01383 ± 0.00062
423.52 K, Amount density=49.53 mol/m3	0.01376 ± 0.00061
423.77 K, Amount density=13.2 mol/m3	0.01383 ± 0.00062
423.88 K, Amount density=32.22 mol/m3	0.0138 ± 0.00061
423.96 K, Amount density=10.1 mol/m3	0.01385 ± 0.00062
424.38 K, Amount density=17.93 mol/m3	0.01383 ± 0.00062
424.41 K, Amount density=24.58 mol/m3	0.01382 ± 0.00062
424.73 K, Amount density=6.32 mol/m3	0.01388 ± 0.00062
425.1 K, Amount density=38.68 mol/m3	0.0138 ± 0.00061
437.6 K, Amount density=10.1 mol/m3	0.01431 ± 0.00063
437.81 K, Amount density=8.17 mol/m3	0.01431 ± 0.00063
438.41 K, Amount density=13.2 mol/m3	0.01432 ± 0.00063
439.16 K, Amount density=32.22 mol/m3	0.01431 ± 0.00063
439.2 K, Amount density=24.58 mol/m3	0.01432 ± 0.00063
439.47 K, Amount density=17.93 mol/m3	0.01434 ± 0.00063
439.56 K, Amount density=49.53 mol/m3	0.0143 ± 0.00063
440.07 K, Amount density=6.32 mol/m3	0.01441 ± 0.00063
440.61 K, Amount density=3.79 mol/m3	0.01441 ± 0.00063
441.61 K, Amount density=38.68 mol/m3	0.01437 ± 0.00063
466.95 K, Amount density=24.58 mol/m3	0.01528 ± 0.00066
467.33 K, Amount density=10.1 mol/m3	0.0153 ± 0.00066
467.34 K, Amount density=38.68 mol/m3	0.01528 ± 0.00066
467.49 K, Amount density=49.53 mol/m3	0.01528 ± 0.00066
467.62 K, Amount density=32.22 mol/m3	0.01528 ± 0.00066
467.74 K, Amount density=13.2 mol/m3	0.01531 ± 0.00066
468.08 K, Amount density=17.93 mol/m3	0.01532 ± 0.00066
468.85 K, Amount density=3.79 mol/m3	0.01537 ± 0.00066
496.21 K, Amount density=38.68 mol/m3	0.01626 ± 0.00069
496.4 K, Amount density=8.17 mol/m3	0.01627 ± 0.00069
496.41 K, Amount density=17.93 mol/m3	0.01629 ± 0.00069
496.43 K, Amount density=13.2 mol/m3	0.01627 ± 0.00069
496.44 K, Amount density=24.58 mol/m3	0.01629 ± 0.00069
496.48 K, Amount density=49.53 mol/m3	0.01625 ± 0.00069
496.56 K, Amount density=10.1 mol/m3	0.01629 ± 0.00069
496.65 K, Amount density=3.79 mol/m3	0.01631 ± 0.00069
496.97 K, Amount density=32.22 mol/m3	0.0163 ± 0.00069
525.14 K, Amount density=49.53 mol/m3	0.01724 ± 0.00072
525.41 K, Amount density=3.79 mol/m3	0.01727 ± 0.00072
525.42 K, Amount density=8.17 mol/m3	0.01727 ± 0.00072
526.17 K, Amount density=32.22 mol/m3	0.01727 ± 0.00072
526.39 K, Amount density=13.2 mol/m3	0.01729 ± 0.00072
526.84 K, Amount density=24.58 mol/m3	0.0173 ± 0.00072
527.02 K, Amount density=38.68 mol/m3	0.01727 ± 0.00072
527.99 K, Amount density=17.93 mol/m3	0.01734 ± 0.00072
546.79 K, Amount density=8.17 mol/m3	0.018 ± 0.00074
546.84 K, Amount density=13.2 mol/m3	0.01798 ± 0.00074
547.13 K, Amount density=3.79 mol/m3	0.01802 ± 0.00074
547.3 K, Amount density=32.22 mol/m3	0.01801 ± 0.00074
547.49 K, Amount density=38.68 mol/m3	0.018 ± 0.00074
548.04 K, Amount density=49.53 mol/m3	0.01803 ± 0.00074
548.52 K, Amount density=17.93 mol/m3	0.01806 ± 0.00074
567.4 K, Amount density=13.2 mol/m3	0.01868 ± 0.00076
567.53 K, Amount density=32.22 mol/m3	0.01872 ± 0.00076
568.11 K, Amount density=38.68 mol/m3	0.01872 ± 0.00076
569.26 K, Amount density=3.79 mol/m3	0.01879 ± 0.00076
569.93 K, Amount density=49.53 mol/m3	0.01875 ± 0.00076
571.83 K, Amount density=17.93 mol/m3	0.01886 ± 0.00077
596.93 K, Amount density=13.2 mol/m3	0.01969 ± 0.00079
597.12 K, Amount density=32.22 mol/m3	0.01975 ± 0.00079
597.15 K, Amount density=17.93 mol/m3	0.01973 ± 0.00079
597.28 K, Amount density=49.53 mol/m3	0.01971 ± 0.00079
597.6 K, Amount density=3.79 mol/m3	0.01977 ± 0.00079
598.6 K, Amount density=38.68 mol/m3	0.01979 ± 0.00079
602.56 K, Amount density=8.17 mol/m3	0.01994 ± 0.0008
